Source: patent publication US5821363A, “Antineoplastic use and pharmaceutical compositions containing them” (priority 1996, dated 1998)
Values after ≈ are worked out from the molar mass of the structure shown. Read-outs that look alike come from different tables or passages of the source.

Experiments:
Type in all cases: cell-based
[1] = test system: L1210 mouse leukemia carcinoma cells; assay: cytotoxicity / inhibition of cell proliferation in L1210 leukemia cells
KB-V1 = assay: killing of multidrug resistant KB-V1 cells; conditions: for IC50: Homo sapiens, KB-V1 multidrug resistant cells, Table III, read-out: KB-V1 (IC50; nM); for Ratio: KBV-1/KB-3-1: ratio of IC50 KB-V1 to IC50 KB-3-1
KB-3-1 = assay: killing of drug sensitive (non-MDR) KB-3-1 cells; conditions: Homo sapiens; KB-3-1 drug sensitive cells, Table III; read-out: KB-3-1 (IC50; nM)
[2] = L1210, read-out: L1210 (IC50 μg/ml)
[3] = L1210 leukemia, Table I, 50% inhibition of cell proliferation vs untreated control, read-out: L1210 (IC50 μg/ml)

## CC(=O)O[C@H]1C(=O)[C@]2(C)[C@@H](OC(=O)OCC(Cl)(Cl)Cl)C[C@H]3OC[C@@]3(OC(C)=O)[C@H]2[C@H](OC(=O)c2ccccc2)[C@]2(O)CC(OC(=O)[C@H](O)[C@@H](NC(=O)OC(C)(C)C)c3ccccc3)=C(C)[C@H]1C2(C)C [Compound 12, 7-Troc-13-(N-Boc-β-phenylisoserinyl)-Δ^12,13-iso-baccatin III]
[1]; [2]
  IC50: 0.011 µg/mL (≈ 10.7 nM)

## CC(=O)O[C@H]1C(=O)[C@]2(C)C=C[C@H]3OC[C@@]3(OC(C)=O)[C@H]2[C@H](OC(=O)c2ccccc2)[C@]2(O)CC(OC(=O)[C@H](OC(=O)OCC(Cl)(Cl)Cl)[C@@H](NC(=O)OC(C)(C)C)c3ccccc3)=C(C)[C@H]1C2(C)C [Compound 15, 2'-Troc-13-(N-Boc-β-phenylisoserinyl)-7-deoxy-Δ^6,7 -Δ^12,13-iso-baccatin III]
[1]; [2]
  IC50: 0.0066 µg/mL (≈ 6.55 nM)

## CCOCO[C@H]1C[C@H]2OC[C@@]2(OC(C)=O)[C@H]2[C@H](OC(=O)c3ccccc3)[C@]3(O)CC(OC(=O)[C@H](O)[C@@H](NC(=O)NC(C)(C)C)c4ccccc4)=C(C)[C@H]([C@@H](OC(C)=O)C(=O)[C@]12C)C3(C)C [Compound 43, 7-(O-ethoxymethyl)-13-(N-(t-butylaminocarbonyl)-β-phenylisoserinyl)-Δ^12,13-iso-baccatin III]
[1]; [3]
  IC50: 0.0014 µg/mL (≈ 1.54 nM)
KB-V1
  IC50: 120 nM
  Ratio: KBV-1/KB-3-1: 2.5 × 10^5

## CC[Si](CC)(CC)O[C@H]1C[C@H]2OC[C@@]2(OC(C)=O)[C@H]2[C@H](OC(=O)c3ccccc3)[C@]3(O)CC(OC(=O)[C@H](O)[C@@H](NC(=O)NC(C)(C)C)c4ccccc4)=C(C)[C@H]([C@@H](OC(C)=O)C(=O)[C@]12C)C3(C)C [Compound 32a, 7-TES-13-(N-(t-butylaminocarbonyl)-β-phenylisoserinyl)-Δ^12,13-iso-baccatin III]
[1]; [2]
  IC50: 0.07 µg/mL (≈ 72.7 nM)

## CC(=O)O[C@H]1C(=O)[C@]23C[C@H]2C[C@H]2OC[C@@]2(OC(C)=O)[C@H]3[C@H](OC(=O)c2ccccc2)[C@]2(O)CC(OC(=O)[C@H](OC(=O)OCC(Cl)(Cl)Cl)[C@@H](NC(=O)OC(C)(C)C)c3ccccc3)=C(C)[C@H]1C2(C)C [Compound 14, 2'-Troc-13-(N-Boc-β-phenylisoserinyl)-7-deoxy-7b,8b-methano-Δ^12,13-iso-baccatin III]
[1]; [2]
  IC50: 0.012 µg/mL (≈ 11.9 nM)

## CC(=O)O[C@H]1C(=O)[C@]2(C)C(F)C[C@H]3OC[C@@]3(OC(C)=O)[C@H]2[C@H](OC(=O)c2ccccc2)[C@]2(O)CC(OC(=O)[C@H](O)[C@@H](NC(=O)OC(C)(C)C)c3ccccc3)=C(C)[C@H]1C2(C)C (stereo partly drawn) [Compound 16, 13-(N-Boc-β-phenylisoserinyl)-7-deoxy-7-fluoro-Δ^12,13-iso-baccatin III]
[1]; [2]
  IC50: 0.0029 µg/mL (≈ 3.4 nM)

## CC(=O)O[C@@]12CO[C@@H]1C[C@H](O)[C@@]1(C)C(=O)[C@H](O)[C@H]3C(C)=C(OC(=O)[C@H](O)[C@@H](NC(=O)OC(C)(C)C)c4ccccc4)C[C@@](O)([C@@H](OC(=O)c4ccccc4)[C@H]21)C3(C)C [Compound 8, 10-deacetyl-13-(N-Boc-β-phenylisoserinyl)-Δ^12,13-iso-baccatin III]
[1]; [3]
  IC50: 0.0059 µg/mL (≈ 7.3 nM)

## CC(=O)O[C@H]1C(=O)[C@]23C[C@H]2C[C@H]2OC[C@@]2(OC(C)=O)[C@H]3[C@H](OC(=O)c2ccccc2)[C@]2(O)CC(OC(=O)[C@H](O)[C@@H](NC(=O)NC(C)(C)C)c3ccccc3)=C(C)[C@H]1C2(C)C [Compound 36, 13-(N-(t-butylaminocarbonyl)-β-phenylisoserinyl)-7-deoxy-7β,8β-methano-Δ^12,13-iso-baccatin III]
KB-3-1
  IC50: 0.05 nM
KB-V1
  IC50: 360 nM
  Ratio: KBV-1/KB-3-1: 11,400

## CC[Si](CC)(CC)O[C@H]1C[C@H]2OC[C@@]2(OC(C)=O)[C@H]2[C@H](OC(=O)c3ccccc3)[C@]3(O)CC(OC(=O)[C@H](O)[C@@H](NC(=O)OC(C)(C)C)c4ccccc4)=C(C)[C@H]([C@@H](OC(C)=O)C(=O)[C@]12C)C3(C)C [Compound 6, 7-TES-13-(N-Boc-β-phenylisoserinyl)-Δ^12,13-iso-baccatin III]
[1]; [2]
  IC50: > 0.1 µg/mL
